pEC50: −log10 of the molar value. Converted amounts (≈) assume the structure as drawn. “And” between values parts separate entries of the source, which are not always exact repeats. Identical values can stand only once. Like-named read-outs stand apart in the source and are kept apart here.
Experiments:
[1] = tested on: bacteria phosphotransferase system (PTS) of E. coli mutant 1219bgl+; test: microbe, parasite or virus in culture; type: cell-based; conditions: for EC50 / IC50: 5 min; for IC50: pH 6.5, read-out: EC50
Description: Since the phosphotransferase system for the bacterial cell is an essential transport system for the reception of extracellular carbohydrates, a possible inhibition or adverse effect of the participating enzymes should be noticed to cause a reduction in the carbohydrate transport, that is the PTS constitutes a potential possibility for the detection of toxic substances in microorganisms. […] Said analog is of such a nature that it, in phosphorylated form after the cell transport, can be hydrolyzed by an enzyme in the bacterial cell under the release of a substance susceptible to analysis. If, for instance, 2-nitrophenyl-β-D-glucoside is used as substrate analog, this will be channeled by the PTS under phosphorylation into a bacterial cell, where the ONP-Glc-6-P is broken down hydrolytically by the inducible 6-phospho-β-glucosidase B to Glc-6-P and 2-nitrophenyl. The released 2-nitrophenyl can then, by means of photometry, be quantitatively measured as phenolate-anion after a defined time span. Additionally, with E. coli mutant 1219bgl+ a bacterium is present that is characterized by increased β-glycoside activity, yet is not transformed through genetic engineering nor is pathogenic, which is an important prerequisite for harmless work with bacteria.
The test occurs with a total reaction volume of 500 μl in Eppendorf cups, the O.D.578 of the bacteria suspension amounting to 3.0.
The E. coli cultures of the mutant 1219 bgl+, preserved at -20° C., are first thawed to be reactivated during 10 min. at room temperature. They are then suspended in 250 μl of 50 mM buffer and together with the appropriate test solution and distilled water brought to a volume of 480 μl . This suspension is then pre-incubated over a time span of 10-15 minutes at 37° C. After that, the reaction is started by adding 20 μl of ONP-glucose (50 mM) (equivalent to a final concentration in the reaction batch of 2 mM). The reaction mixture is incubated over a time span of 5 minutes at 37° C. After the end of this reaction time the reaction is terminated by adding 1 ml of Na2 CO3 (0.5M). After a 2 minute centrifugation at 17,000×g the substrate transformations of the tested bacteria suspensions are photometrically determined at 405 nm.
The evaluation of the PTS test with ONP-glycosides is done by means of the toxicological characteristic quantity of the "efficient concentration", (the EC value). It is hereinunder understood with such a concentration of added toxic substance that a measurable parameter of an organism will be inhibited to a certain extent within a freely defined time span. The percentage of adverse effect of the parameter to be measured is indicated by the attached index.
The conversion of the registered percentage inhibitory values into EC values is carried out with the help of the gamma method (Johnson, F. H., Eyring, H. and Stover, B. J., 1974; The theory of rate processes in biology and medicine, John Wiley & Sons, New York: 1-385). With the aid of the O.D.405, registered in the PTS inhibition test, the quotient is formed from the ONP-glycoside cleavage output and the remaining ONP-glycoside cleavage. [formula] O.D.405 : Substrate transformation without toxic substance solution. D O.D.405 : Output of the substrate transformation after incubation with the toxic substance solution.
The gamma values hereby obtained are used against the employed concentration of toxic substance, in a double logarithmic representation. […]

[2] = tested on: Vibrio fischen; conditions: cited from earlier work
[3] = tested on: E. coli mutant 1219bgl+ PTS; test: ONP-glycoside cleavage in dependency on substrate concentration (Lineweaver-Burk); type: cell-based; conditions: Lineweaver-Burk process
Description: Looking more closely into the ONP-glycoside cleavage in dependency on substrate concentration, we find the presence of saturation kinetics without substrate inhibition (FIG. 4). […] Since, when increasing the substrate concentration, there was no further velocity increase to be registered, the dosage of the substrate to be used, according to the invention, takes place in accord with a cost and efficiency weighting at 2 mM. When performing the PTS inhibition test, in accordance with the invention, it also turned out that the sensitivity of the test is clearly dependent on the kind of buffer used. It was particularly conspicuous that phosphate buffer has a clearly stimulating effect on the ONP-glycoside hydrolysis, whereas, on the other hand, when performing the inhibition test with heavy metals as toxic substances, the strongest inhibitory effects were to be registered when using the HEPES buffer. It should however be taken into account that a phosphate buffer in the presence of heavy metal salts is less suitable due to solubility problems that then might occur. Therefore when testing heavy metals, the HEPES buffer should preferably be chosen.

[4] = heavy metal ions as chlorides, HEPES buffer pH 6.5, 37° C., 5 min reaction
[5] = heavy metal ions as chlorides, HEPES buffer pH 6.5, 37° C., 5 min reaction, read-out: EC50
[6] = reaction time 10 min, Beckmann, 1980
[7] = Escherichia coli, pH 6.5, read-out: EC10, organic solvents, 50 mM phosphate buffer pH 6.5
[8] = organic solvents, 50 mM phosphate buffer pH 6.5

[Pb+2] [Pb^2+]
EC50 [1, 4]: 67 ppm | EC10 ([1]; heavy metal ions as chlorides, HEPES buffer pH 6.5, 37° C., 5 min reaction, listed as Pb^+): 120 µM | pEC50 [1, 5]: 3.49 | Bioluminescent Inhibition Test EC50 (ppm) ([2]; reaction time 30 min, Beckmann, 1981): 0.4 ppm

Cc1ccccc1 [Toluene, toluene]
IC50 ([1]; Escherichia coli): 35 mg/L (≈ 0.38 mM) | pEC50 ([1]; Escherichia coli, pH 6.5): 3.42

[Ni+2] [Ni^2+]
maximal inhibition ([1]; HEPES buffer pH 6.5): about 70% | EC50 [1, 4]: 4.5 ppm | pEC50 [1, 5]: 4.12

ClCCCl [Dichloroethane, dichloroethane]
inhibition of ONP-glucose transformation ([1]; at approx. 3,500 ppm (approximative 35 μM as printed), phosphate buffer pH 6.5, no extrapolation to gamma values possible): about 30%

O=[N+]([O-])c1ccccc1O[C@@H]1O[C@H](CO)[C@@H](O)[C@H](O)[C@H]1O [ONP-glycoside, 2-nitrophenyl-β-D-glucoside]
Km [3]: 2000 µM | maximal reaction velocity [3]: 42 nmol/min/mL

[Cu+2] [Cu^2+]
EC50 [1, 4]: 11 ppm | pEC50 [1, 5]: 3.76 | Bioluminescent Inhibition Test EC50 (ppm) [2, 6]: 16 ppm

[Hg+2] [Hg^2+]
maximal inhibition ([1]; HEPES buffer pH 6.5): about 70% | EC50 [1, 4]: 2.1 ppm | pEC50 [1, 5]: 4.99 | Bioluminescent Inhibition Test EC50 (ppm) ([2]; reaction time 5 min, Bulich et al., 1981): 0.065 ppm

CCO [Ethanol, ethanol]
IC50 ([1]; Escherichia coli): 33000 mg/L (≈ 716 mM) | IC10 [1, 7]: 10500 µg/mL and 288 µM | EC10 [1, 8]: approx. 10,500 ppm | Bioluminescent Inhibition Test EC50 (ppm) ([2]; vibrio fischeri luminescence): 31,000

ClC(Cl)Cl [Chloroform, chloroform]
IC50 ([1]; Escherichia coli): 1900 mg/L (≈ 15.9 mM) | pEC50 ([1]; Escherichia coli, pH 6.5): 1.80 | IC10 [1, 7]: 720 µg/mL and 6 µM | Bioluminescent Inhibition Test EC50 (ppm) ([2]; vibrio fischeri luminescence): 1,168

[Cr+3] [Cr^3+]
EC50 [1, 4]: 16 ppm

[Zn+2] [Zn^2+]
EC50 [1, 4]: 8 ppm | pEC50 [1, 5]: 3.91 | Bioluminescent Inhibition Test EC50 (ppm) [2, 6]: 25.4 ppm

CCCCCCCCCCCCOS(=O)(=O)O [SDS]
IC50 ([1]; Escherichia coli): 13 mg/L (≈ 0.0488 mM) | pEC50 ([1]; Escherichia coli, pH 6.5): 4.35 | IC10 ([1]; Escherichia coli, pH 6.5, read-out: EC10, detergents, 50 mM HEPES buffer pH 6.5): 5.5 µg/mL and ~19 µM

C1COCCO1 [Dioxan, dioxan]
IC50 ([1]; Escherichia coli): 30000 mg/L (≈ 340 mM) | IC10 [1, 7]: 10000 µg/mL and 114 µM | EC10 [1, 8]: approx. 10,000 ppm

[Cd+2] [Cd^2+]
EC50 [1, 4]: 19 ppm | pEC50 [1, 5]: 3.77 | Bioluminescent Inhibition Test EC50 (ppm) [2, 6]: 131 ppm

Triton X-100
EC50 ([1]; detergents, 50 mM HEPES buffer pH 6.5): 180 ppm

Oc1ccccc1 [Phenol, phenol]
IC50 ([1]; Escherichia coli): 1400 mg/L (≈ 14.9 mM) | pEC50 ([1]; Escherichia coli, pH 6.5): 1.83 | IC10 [1, 7]: 350 µg/mL and 3.7 µM | Bioluminescent Inhibition Test EC50 (ppm) ([2]; vibrio fischeri luminescence): 25

Source: patent publication US5672470A, “Microbial process for detection of toxic substances” (priority 1994, dated 1997)
